pIC50: −log10 of the molar value.
Assays:
aggrecanase-1 = target: T1, aggrecanase-1 (Homo sapiens, UniProt O75173); test: Aggrecanase-1 inhibitory action, Particle Assay (GAG release from aggrecan-containing polyacrylamide particles); assay type: biochemical; settings: 37° C. for 15 hr, read-out: Experimental Example 1 IC50 AG1
T1 sequence (O75173 213-837): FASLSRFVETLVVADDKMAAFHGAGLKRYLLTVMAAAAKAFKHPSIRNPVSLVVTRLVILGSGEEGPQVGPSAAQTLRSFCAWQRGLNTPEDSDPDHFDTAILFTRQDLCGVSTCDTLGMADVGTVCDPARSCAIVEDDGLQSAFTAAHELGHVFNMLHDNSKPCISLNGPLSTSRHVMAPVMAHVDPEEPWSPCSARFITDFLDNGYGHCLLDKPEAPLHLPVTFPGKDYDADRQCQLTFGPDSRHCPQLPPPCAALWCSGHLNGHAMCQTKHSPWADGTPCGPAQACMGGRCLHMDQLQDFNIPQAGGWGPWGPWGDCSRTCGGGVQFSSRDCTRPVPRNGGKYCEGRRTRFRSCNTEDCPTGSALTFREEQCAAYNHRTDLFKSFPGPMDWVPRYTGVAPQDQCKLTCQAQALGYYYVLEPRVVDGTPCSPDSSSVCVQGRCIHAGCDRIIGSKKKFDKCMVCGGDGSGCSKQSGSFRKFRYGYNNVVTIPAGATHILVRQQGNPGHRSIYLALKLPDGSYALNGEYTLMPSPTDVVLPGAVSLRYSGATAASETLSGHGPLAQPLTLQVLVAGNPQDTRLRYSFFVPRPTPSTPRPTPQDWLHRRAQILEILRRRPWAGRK
How it was run: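 IC50 (μM) derived from % inhibition, referenced to enzyme-free and inhibitor-free wells, of GAG release read as 1,9-dimethylmethylene blue absorbance at 595 nm (chondroitin sulfate standard). Substrate: aggrecan-bearing polyacrylamide particles, exposed to enzyme plus compound in Tris-HCl for 15 hr at 37 °C.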

MMP-1 = target: T2, MMP-1 (Homo sapiens, UniProt P03956); test: MMP-1 inhibitory action, Type I collagen Activity Measurement kit (FITC-labeled collagen type I); assay type: biochemical; settings: 37° C. for 3 hr, read-out: Experimental Example 2 IC50 MMP1
T2 sequence (P03956 100-469): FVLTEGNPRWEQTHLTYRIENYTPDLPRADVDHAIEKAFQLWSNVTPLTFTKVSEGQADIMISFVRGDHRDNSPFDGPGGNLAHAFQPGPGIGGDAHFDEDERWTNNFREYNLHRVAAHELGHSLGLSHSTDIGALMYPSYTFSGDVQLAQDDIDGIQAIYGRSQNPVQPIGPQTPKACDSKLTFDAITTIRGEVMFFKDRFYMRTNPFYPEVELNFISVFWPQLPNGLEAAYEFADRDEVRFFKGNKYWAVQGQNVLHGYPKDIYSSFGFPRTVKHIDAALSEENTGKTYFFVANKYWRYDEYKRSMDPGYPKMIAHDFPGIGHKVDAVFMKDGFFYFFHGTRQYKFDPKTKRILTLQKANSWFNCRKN

Row | Structure (SMILES) | pIC50 (aggrecanase-1) | pIC50 (MMP-1)
1 | N#Cc1ccccc1[C@@H]1C[C@@]1(C(=O)O)N(CC(=O)O)S(=O)(=O)c1ccc(-c2ccc(Cl)cc2)cc1 (relative stereo) [Example 1-28, (1R*,2S*)-1-[carboxymethyl-(4′-chloro-biphenyl-4-sulfonyl)-amino]-2-(2-cyano-phenyl)-cyclopropanecarboxylic acid] | > 6.00 | ≤ 5.00
2 | O=C(O)c1cc(CN(C2(C(=O)O)CC2c2ccccc2)S(=O)(=O)c2ccc(-c3ccc(Cl)cc3)cc2)on1 [Example 1-82, 5-{[((R, 2S*-1-carboxy-2-phenyl-cyclopropyl)-(4′-chloro-biphenyl-4-sulfonyl)-amino]-methyl}-isooxazole-3-carboxylic acid] | > 6.00 | ≤ 5.00
3 | CC(C)COc1cccc([C@@H]2C[C@@]2(C(=O)O)N(CC(=O)O)S(=O)(=O)c2ccc(-c3ccc(Cl)cc3)cc2)c1 (relative stereo) [Example 1-47, (1R*,2S*)-1-[carboxymethyl-(4′-chloro-biphenyl-4-sulfonyl)-amino]-2-(3-isobutoxy-phenyl)-cyclopropanecarboxylic acid] | > 7.00 | ≤ 5.00
4 | COc1ccccc1[C@@H]1C[C@@]1(C(=O)O)N(CC(=O)O)S(=O)(=O)c1ccc(-c2ccc(Cl)cc2)cc1 (relative stereo) [Example 1-22, (1R*,2S*)-1-[carboxymethyl-(4′-chloro-biphenyl-4-sulfonyl)-amino]-2-(2-methoxy-phenyl)-cyclopropanecarboxylic acid] | > 6.00 | ≤ 5.00
5 | O=C(O)c1cccc(CN([C@]2(C(=O)O)C[C@H]2c2cccc(Oc3ccccc3)c2)S(=O)(=O)c2ccc(-c3ccc(Cl)cc3)cc2)c1 (relative stereo) [Example 1-51, (1R*,2S*)-3-{[[1-carboxy-2-(3-phenoxy-phenyl)-cyclopropyl]-(4′-chloro-biphenyl-4-sulfonyl)-amino]-methyl}-benzoic acid] | > 7.00 | ≤ 5.00
6 | O=C(O)[C@]12[C@H](CCN1S(=O)(=O)c1ccc(-c3ccc(Cl)cc3)cc1)[C@H]2c1ccccc1 (relative stereo) [Example 2-02, (1R*, 5R*,6S*)-2-(4′-chlorobiphenyl-4-sulfonyl)-6-phenyl-2-aza-bicyclo[3.1.0]hexane-1-carboxylic acid] | ≤ 5.00 | ≤ 5.00

Second part, the compound after the results:

Row | pIC50 (aggrecanase-1) | pIC50 (MMP-1) | Structure (SMILES)
7 | > 6.00 | ≤ 5.00 | O=C(O)[C@@]1(N(CCO)S(=O)(=O)c2ccc(-c3ccc(Cl)cc3)cc2)C[C@H]1c1cccc(Oc2ccccc2)c1 (relative stereo) [Example 1-114, (1R*,2S*)-1-[(4′-chloro-biphenyl-4-sulfonyl)-(2-hydroxy-ethyl)-amino]-2-(3-phenoxy-phenyl)-cyclopropanecarboxylic acid]
8 | > 6.00 | ≤ 5.00 | CCN(CC)CCNc1cccc([C@@H]2C[C@@]2(C(=O)O)N(Cc2cccc(C(=O)O)c2)S(=O)(=O)c2ccc(-c3ccc(Cl)cc3)cc2)c1 (relative stereo) [Example 1-85, 3-{[{(1R*,2S*)-1-carboxy-2-[3-(2-diethylamino-ethylamino)-phenyl]-cyclopropyl}-(4′-chloro-biphenyl-4-sulfonyl)-amino]-methyl}-benzoic acid]
9 | > 6.00 | ≤ 5.00 | NS(=O)(=O)NCCN(C1(C(=O)O)CC1c1ccccc1)S(=O)(=O)c1ccc(-c2ccc(Cl)cc2)cc1 (centres unmarked) [Example 1-84]
10 | > 7.00 | ≤ 5.00 | O=C(O)c1cccc(CN([C@]2(C(=O)O)C[C@H]2c2cccc(Nc3ccccn3)c2)S(=O)(=O)c2ccc(-c3ccc(Cl)cc3)cc2)c1 (relative stereo) [Example 1-86, 3-{[{(1R*,2S*)-1-carboxy-2-[3-(pyridin-2-ylamino)-phenyl]-cyclopropyl}-(4′-chloro-biphenyl-4-sulfonyl)-amino]-methyl}benzoic acid]
